US20120165384A1, “INHIBITION OF HISTONE ACETYLTRANSFERASES BY CTK7A AND METHODS THEREOF” (JAWAHARLAL NEHRU CENTRE FOR ADVANCED SCIENTIFIC RESEARCH, priority 2009, published 2012)

Experiments:
CBP = biological target: T1, CBP (Homo sapiens, UniProt Q92793); test: HAT assay with recombinant CBP; type: biochemical
T1 construct: Recombinant baculovirus expressing full-length FLAG-tagged CARM1,CBP and PCAF; FLAG; made in house; host or cells: baculovirus-infected Sf21 cells
Experimental: (§1) Recombinant baculovirus expressing full-length FLAG-tagged CARM1,CBP and PCAF were purified by immunoaffinity chromatography using M2-agarose beads followed by elution with FLAG peptide. Baculovirus-expressed full-length hexahistidine-tagged p300, and G9a were purified using Ni-NTA affinity chromatography as described previously^30.
(§2) HAT gel fluorography/autoradiography assays were performed as previously reported^30. Kinetic analysis of p300 HAT inhibition was performed as reported earlier^31 in the presence of (0, 30 and 50 μM) CTK7A. The obtained values were plotted as a lineweaver burk plot using Graphpad Prism software. For p300 Autoacetylation assay, reactions of p300 full length (80 ng) were carried out in HAT assay buffer at 30° C. for 10 minutes with or without the protein (NPM1) followed by addition of 1 μl of 4.7 Ci/mmol [^3H] acetyl CoA (NEN-PerkinElmer) and were further incubated for another 10 min in a 30 μl reaction. GAPDH was used as positive control. The radio-labeled acetylated p300 were processed by fluorography followed by autoradiography.

G9a = biological target: T2, G9a (Homo sapiens, UniProt Q96KQ7); test: Histone methyltransferase (HMTase) assay, G9a; type: biochemical; conditions: even at 100 μM
T2 construct: hexahistidine; made in house; host or cells: baculovirus-infected Sf21 cells
T2 sequence (Q96KQ7 1-1210): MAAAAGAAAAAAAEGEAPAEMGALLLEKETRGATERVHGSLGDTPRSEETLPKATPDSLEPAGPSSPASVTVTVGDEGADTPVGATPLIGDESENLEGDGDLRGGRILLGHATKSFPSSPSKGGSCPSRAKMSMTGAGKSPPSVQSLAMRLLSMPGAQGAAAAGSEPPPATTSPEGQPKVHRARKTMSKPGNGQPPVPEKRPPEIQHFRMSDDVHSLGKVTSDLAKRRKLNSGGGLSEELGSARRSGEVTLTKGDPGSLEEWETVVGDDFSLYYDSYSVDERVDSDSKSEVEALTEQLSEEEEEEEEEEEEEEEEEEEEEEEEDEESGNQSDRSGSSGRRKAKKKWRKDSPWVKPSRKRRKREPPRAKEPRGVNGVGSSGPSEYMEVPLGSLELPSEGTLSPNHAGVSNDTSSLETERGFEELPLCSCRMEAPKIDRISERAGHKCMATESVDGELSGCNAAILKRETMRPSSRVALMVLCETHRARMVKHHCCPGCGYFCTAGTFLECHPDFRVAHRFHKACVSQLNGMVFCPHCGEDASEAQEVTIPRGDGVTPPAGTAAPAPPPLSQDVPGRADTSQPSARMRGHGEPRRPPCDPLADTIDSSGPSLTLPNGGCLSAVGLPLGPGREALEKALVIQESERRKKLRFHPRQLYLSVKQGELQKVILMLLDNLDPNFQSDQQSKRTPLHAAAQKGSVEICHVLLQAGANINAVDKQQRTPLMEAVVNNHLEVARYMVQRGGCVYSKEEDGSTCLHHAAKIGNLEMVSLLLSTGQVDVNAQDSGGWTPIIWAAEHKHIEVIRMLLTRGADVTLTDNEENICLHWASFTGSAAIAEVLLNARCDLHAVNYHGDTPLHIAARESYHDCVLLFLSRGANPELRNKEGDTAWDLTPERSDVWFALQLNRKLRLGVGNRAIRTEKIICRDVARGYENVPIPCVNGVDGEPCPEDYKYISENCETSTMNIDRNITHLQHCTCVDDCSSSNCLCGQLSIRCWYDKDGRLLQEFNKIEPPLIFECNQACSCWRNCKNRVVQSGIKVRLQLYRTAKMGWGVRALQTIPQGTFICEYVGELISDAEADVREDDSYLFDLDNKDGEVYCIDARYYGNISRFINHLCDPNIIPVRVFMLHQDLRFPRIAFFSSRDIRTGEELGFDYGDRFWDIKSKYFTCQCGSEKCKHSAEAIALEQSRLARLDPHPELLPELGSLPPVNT
Experimental: as §1
(§3) The deacetylation assay was performed as per standard protocol^31. For SirT2 deacetylase assay, 50 ng of bacterially expressed, recombinant enzyme was added in the presence or absence of cofactor NAD^+. HMTase was performed as reported earlier^31.

Tip60 = Tip60 (Homo sapiens, UniProt Q92993); test: HAT assay, Tip60; type: biochemical; conditions: even at 100 μM
Experimental: as §2

SIRT2 = biological target: T3, SIRT2 (Homo sapiens, UniProt Q8IXJ6); test: SirT2 deacetylase assay; type: biochemical; conditions: even at 100 μM
T3 construct: made in house
T3 sequence (Q8IXJ6 1-389): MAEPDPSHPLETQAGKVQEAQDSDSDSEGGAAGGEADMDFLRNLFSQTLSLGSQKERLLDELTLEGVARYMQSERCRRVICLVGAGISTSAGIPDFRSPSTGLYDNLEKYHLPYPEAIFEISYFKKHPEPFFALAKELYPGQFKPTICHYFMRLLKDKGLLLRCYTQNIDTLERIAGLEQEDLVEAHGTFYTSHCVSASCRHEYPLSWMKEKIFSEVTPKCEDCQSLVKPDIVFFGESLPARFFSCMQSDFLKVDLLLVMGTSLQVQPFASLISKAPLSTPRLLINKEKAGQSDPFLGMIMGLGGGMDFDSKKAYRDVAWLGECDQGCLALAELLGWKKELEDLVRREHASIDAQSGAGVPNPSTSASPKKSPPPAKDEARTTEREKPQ
Experimental: as §3

PCAF = biological target: T4, PCAF (Homo sapiens, UniProt Q92831); test: PCAF autoacetylation assay in vitro; type: biochemical; conditions: concentration dependent
T4 construct: Recombinant baculovirus expressing full-length FLAG-tagged CARM1,CBP and PCAF; FLAG; made in house; host or cells: baculovirus-infected Sf21 cells

Solubility test in water = type: physicochemical
Experimental: To a solution of curcumin in methanol (10 mg, 0.027 Mmol) […]. After incubation for 24 h, the solvent was evaporated in vacuum. The residue […] was purified with repeated recrystallization and filtration method using TLC (CHCl3/MeOH=4:1; Rf=0.5). This gave CTK7 as a dark orange powder (7.18 mg, 55%) which was analyzed by H^1 NMR, Melting point test, Solubility test and ESI-MS.
To a solution of CTK7 in methanol (50 mg, 0.1031 mmol), (10 ml) of Sodium ethoxide was added ([…], 0.1175 mmol) and the reaction mixture was stirred at room temperature for 90 minutes. The solvent was evaporated in vacuum and the residue was washed with hexane, diethyl ether and ethyl acetate. Product was confirmed through H^1 NMR, Solubility test, melting point.

p300 = p300 (Homo sapiens, UniProt Q09472); test: HAT assay with recombinant p300; type: biochemical; set-up: hexahistidine; made in house; host or cells: baculovirus-infected Sf21 cells
p300, sequence (Q09472 whole entry, species assumed): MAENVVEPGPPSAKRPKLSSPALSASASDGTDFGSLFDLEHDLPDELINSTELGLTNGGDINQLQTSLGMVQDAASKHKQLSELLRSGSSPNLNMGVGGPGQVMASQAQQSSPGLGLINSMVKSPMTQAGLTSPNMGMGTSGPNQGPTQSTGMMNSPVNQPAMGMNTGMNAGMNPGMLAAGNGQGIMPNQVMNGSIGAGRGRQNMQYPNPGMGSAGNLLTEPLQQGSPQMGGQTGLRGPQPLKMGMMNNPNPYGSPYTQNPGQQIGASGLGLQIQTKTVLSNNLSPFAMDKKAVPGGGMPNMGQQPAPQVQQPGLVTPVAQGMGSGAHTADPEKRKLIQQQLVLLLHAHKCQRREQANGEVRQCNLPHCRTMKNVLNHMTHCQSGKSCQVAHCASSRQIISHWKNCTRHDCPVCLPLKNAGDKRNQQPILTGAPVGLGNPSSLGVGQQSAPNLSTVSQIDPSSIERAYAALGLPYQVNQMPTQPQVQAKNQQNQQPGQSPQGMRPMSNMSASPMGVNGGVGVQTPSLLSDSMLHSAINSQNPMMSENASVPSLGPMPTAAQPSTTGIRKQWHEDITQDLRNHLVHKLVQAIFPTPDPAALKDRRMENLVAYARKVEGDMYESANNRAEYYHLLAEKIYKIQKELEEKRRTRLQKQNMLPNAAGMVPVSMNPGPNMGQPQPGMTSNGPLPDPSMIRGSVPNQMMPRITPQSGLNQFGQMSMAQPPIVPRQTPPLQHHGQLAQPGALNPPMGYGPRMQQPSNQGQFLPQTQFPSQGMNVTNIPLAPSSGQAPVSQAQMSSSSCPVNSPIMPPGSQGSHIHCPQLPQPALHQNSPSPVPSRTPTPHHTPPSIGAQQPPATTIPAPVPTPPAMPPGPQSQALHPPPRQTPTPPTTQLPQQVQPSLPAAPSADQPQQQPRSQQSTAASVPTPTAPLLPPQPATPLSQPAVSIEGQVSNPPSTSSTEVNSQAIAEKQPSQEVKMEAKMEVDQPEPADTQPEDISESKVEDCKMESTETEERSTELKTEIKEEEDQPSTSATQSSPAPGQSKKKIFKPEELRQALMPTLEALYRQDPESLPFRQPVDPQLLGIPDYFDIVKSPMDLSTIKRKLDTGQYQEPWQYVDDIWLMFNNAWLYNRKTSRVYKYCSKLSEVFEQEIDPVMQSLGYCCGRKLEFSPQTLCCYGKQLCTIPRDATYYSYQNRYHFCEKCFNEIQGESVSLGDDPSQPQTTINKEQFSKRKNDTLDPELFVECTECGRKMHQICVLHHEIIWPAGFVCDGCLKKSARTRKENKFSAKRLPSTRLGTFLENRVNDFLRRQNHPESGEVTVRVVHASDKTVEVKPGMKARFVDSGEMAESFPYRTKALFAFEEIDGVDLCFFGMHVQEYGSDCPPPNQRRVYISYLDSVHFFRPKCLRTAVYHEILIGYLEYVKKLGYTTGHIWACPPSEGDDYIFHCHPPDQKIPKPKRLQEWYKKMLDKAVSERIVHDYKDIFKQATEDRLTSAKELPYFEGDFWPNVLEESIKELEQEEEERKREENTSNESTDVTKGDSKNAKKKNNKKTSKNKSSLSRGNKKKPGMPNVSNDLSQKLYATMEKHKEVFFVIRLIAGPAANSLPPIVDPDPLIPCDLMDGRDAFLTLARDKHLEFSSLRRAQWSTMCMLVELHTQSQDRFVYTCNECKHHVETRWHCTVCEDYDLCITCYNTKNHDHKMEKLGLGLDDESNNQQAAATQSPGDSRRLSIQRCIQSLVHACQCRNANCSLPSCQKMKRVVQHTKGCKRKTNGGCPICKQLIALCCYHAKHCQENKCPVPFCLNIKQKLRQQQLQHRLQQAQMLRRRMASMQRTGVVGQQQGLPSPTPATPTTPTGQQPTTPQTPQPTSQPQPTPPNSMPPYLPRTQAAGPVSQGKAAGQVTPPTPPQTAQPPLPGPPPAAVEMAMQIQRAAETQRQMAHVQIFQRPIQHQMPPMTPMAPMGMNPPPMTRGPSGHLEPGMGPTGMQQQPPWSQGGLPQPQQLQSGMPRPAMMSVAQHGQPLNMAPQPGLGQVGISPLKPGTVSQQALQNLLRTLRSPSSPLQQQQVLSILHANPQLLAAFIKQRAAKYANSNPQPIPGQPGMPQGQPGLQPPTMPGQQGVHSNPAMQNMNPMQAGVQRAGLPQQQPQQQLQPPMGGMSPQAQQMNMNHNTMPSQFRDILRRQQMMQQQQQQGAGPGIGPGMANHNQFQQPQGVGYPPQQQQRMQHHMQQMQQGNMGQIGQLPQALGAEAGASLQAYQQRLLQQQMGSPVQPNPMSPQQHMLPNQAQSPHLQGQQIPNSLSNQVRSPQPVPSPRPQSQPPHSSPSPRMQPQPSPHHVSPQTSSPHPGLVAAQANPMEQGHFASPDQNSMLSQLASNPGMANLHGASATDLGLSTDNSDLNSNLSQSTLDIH
Experimental: as §1, §2

T1 sequence (Q92793 whole entry): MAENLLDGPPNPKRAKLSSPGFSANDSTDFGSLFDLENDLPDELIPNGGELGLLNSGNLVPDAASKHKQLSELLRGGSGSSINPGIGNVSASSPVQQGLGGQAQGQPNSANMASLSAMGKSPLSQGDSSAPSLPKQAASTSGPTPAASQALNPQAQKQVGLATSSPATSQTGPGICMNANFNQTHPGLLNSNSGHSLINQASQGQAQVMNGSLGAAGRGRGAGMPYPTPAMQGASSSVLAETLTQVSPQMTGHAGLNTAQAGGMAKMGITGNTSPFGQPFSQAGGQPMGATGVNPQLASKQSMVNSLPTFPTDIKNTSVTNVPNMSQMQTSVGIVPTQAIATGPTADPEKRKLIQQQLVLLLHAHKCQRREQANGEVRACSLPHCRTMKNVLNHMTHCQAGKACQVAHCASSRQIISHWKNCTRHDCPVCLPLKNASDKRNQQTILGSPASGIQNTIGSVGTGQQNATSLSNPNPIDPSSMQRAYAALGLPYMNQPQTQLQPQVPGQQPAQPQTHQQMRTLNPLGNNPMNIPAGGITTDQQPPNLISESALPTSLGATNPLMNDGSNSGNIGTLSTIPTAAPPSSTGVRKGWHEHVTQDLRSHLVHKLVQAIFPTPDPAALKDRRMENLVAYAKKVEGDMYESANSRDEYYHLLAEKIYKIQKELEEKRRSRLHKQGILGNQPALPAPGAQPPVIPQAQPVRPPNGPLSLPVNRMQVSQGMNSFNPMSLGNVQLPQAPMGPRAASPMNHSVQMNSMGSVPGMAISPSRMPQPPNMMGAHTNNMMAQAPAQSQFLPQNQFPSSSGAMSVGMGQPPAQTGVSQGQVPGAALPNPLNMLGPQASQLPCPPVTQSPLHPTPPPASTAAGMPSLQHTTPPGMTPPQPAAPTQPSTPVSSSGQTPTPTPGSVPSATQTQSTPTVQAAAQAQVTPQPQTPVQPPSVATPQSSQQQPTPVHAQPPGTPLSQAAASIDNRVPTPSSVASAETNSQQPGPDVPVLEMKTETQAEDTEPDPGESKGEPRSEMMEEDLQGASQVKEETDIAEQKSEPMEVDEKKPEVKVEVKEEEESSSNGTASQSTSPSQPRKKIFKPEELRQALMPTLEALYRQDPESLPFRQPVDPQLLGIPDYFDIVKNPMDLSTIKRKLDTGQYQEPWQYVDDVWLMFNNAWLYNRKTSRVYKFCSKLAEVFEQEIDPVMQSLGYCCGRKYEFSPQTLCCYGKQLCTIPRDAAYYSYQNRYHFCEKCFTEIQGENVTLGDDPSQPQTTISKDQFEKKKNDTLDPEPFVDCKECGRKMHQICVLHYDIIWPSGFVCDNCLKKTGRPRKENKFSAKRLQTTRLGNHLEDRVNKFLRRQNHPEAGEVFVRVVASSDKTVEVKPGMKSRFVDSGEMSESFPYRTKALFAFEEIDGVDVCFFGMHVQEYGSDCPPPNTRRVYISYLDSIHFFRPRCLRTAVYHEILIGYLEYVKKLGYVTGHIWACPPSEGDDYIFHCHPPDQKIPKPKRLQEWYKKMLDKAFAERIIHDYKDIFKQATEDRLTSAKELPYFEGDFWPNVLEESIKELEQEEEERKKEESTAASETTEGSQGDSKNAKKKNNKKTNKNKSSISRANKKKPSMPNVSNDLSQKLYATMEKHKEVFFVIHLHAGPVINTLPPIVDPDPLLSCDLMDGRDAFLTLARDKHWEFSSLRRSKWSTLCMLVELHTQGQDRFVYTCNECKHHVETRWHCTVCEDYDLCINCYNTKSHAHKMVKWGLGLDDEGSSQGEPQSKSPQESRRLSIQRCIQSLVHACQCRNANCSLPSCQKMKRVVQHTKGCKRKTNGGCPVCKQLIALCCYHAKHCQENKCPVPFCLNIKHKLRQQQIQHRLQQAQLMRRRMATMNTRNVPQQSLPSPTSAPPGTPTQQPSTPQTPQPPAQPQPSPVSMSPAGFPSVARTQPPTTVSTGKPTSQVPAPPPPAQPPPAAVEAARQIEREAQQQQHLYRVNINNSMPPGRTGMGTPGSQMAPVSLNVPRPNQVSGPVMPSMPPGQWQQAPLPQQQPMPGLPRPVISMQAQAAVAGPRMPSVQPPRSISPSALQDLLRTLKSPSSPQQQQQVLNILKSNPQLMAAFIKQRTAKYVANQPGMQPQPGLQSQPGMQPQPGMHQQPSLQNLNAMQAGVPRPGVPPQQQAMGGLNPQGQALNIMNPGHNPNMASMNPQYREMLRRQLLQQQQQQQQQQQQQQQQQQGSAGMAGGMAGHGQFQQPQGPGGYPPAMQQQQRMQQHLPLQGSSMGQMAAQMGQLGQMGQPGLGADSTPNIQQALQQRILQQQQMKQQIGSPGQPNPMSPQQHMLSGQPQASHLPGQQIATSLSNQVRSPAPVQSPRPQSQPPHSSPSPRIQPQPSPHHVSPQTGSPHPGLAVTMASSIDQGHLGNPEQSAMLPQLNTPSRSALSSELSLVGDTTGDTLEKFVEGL

COc1cc([O-])cc(C=CC2=NN(c3ccc(C(=O)[O-])cc3)C(C=Cc3cc([O-])cc(OC)c3)C2)c1.[Na+].[Na+].[Na+] (centres unmarked) [CTK7A, Sodium 4-(3,5-bis(3-methoxy-5-oxidostyryl)-4,5dihydro-1H-pyrazole-1-yl)benzoate]
inhibition of CBP HAT activity (CBP): inhibit
effect on G9a activity (G9a): unaffected
effect on Tip60 activity (Tip60): unaffected
effect on SIRT2 activity (SIRT2): unaffected
inhibition of PCAF autoacetylation (PCAF): inhibit
solubility in water (Solubility test in water): Soluble
inhibition of p300 HAT activity (p300): inhibit
type of inhibition pattern for p300 (p300; both substrates, acetyl-coA and core histone, 0, 30 and 50 μM): non-competitive
